{
  "source": "patent US20130344026A1",
  "about": "“Dimeric Smac Mimetics” (priority 2009, published 2013)",
  "tested_on": "PANC-1 cells",
  "test": "cell viability assay in PANC-1 cells (compound alone, + 100 ng/ml TNFa, + 300 ng/ml TRAIL)",
  "type": "cell-based",
  "key": {"[1]": {"details": "Homo sapiens, PANC-1, compound alone, Tables 6-10, read-out: IC50 (μM) in cell viability assay in PANC-1 cells: Compound alone"}, "[2]": {"details": "with 100 ng/ml TNFa, Tables 6-10, read-out: IC50 (μM) in cell viability assay in PANC-1 cells: Compound + 100 ng/ml TNFa"}, "[3]": {"details": "with 300 ng/ml TRAIL, Tables 6-10, read-out: IC50 (μM) in cell viability assay in PANC-1 cells: Compound + 300 ng/ml TRAIL"}, "[4]": {"details": "Homo sapiens, PANC-1 cells, compound alone, read-out: IC50 (uM) in cell viability assay in PANC-1 cells, Cmpnd alone"}, "[5]": {"details": "PANC-1 cells, + 100 ng/ml TNFa, read-out: IC50 (uM) in cell viability assay in PANC-1 cells, Cmpnd + 100 ng/ml TNFa"}, "[6]": {"details": "PANC-1 cells, + 300 ng/ml TRAIL, read-out: IC50 (uM) in cell viability assay in PANC-1 cells, Cmpnd + 300 ng/ml TRAIL"}},
  "note": "Like-named read-outs stand apart in the source and are kept apart here.",
  "data": [
    {"compound": "CN[C@@H](C)C(=O)N[C@H](C(=O)N[C@@H](CCNC(=O)c1ccc(CCc2ccc(C(=O)N[C@@H]3C[C@@H](C(=O)N[C@@H]4CCCc5ccccc54)N(C(=O)[C@@H](NC(=O)[C@H](C)NC)C(C)(C)C)C3)cc2)cc1)C(=O)NC(C)C(C)C)C(C)C", "note": "(stereo partly shown) [Compound 201]", "values": [
      {"measurement": "IC50", "setting": "[1]", "result": "> 1", "unit": "µM"},
      {"measurement": "IC50", "setting": "[2]", "result": 0.027, "unit": "µM"},
      {"measurement": "IC50", "setting": "[3]", "result": 0.057, "unit": "µM"}
    ]},
    {"compound": "CN[C@@H](C)C(=O)N[C@H](C(=O)N1C[C@@H](NC(=O)c2cccc(C(=O)N[C@H]3C[C@@H](C(=O)NCCc4ccc(O)cc4)N(C(=O)[C@@H](NC(=O)[C@H](C)NC)C(C)(C)C)C3)c2)C[C@H]1C(=O)NCCc1ccc(O)cc1)C(C)(C)C", "note": "[Compound 3]", "values": [
      {"measurement": "IC50", "setting": "[1]", "result": "> 1", "unit": "µM"},
      {"measurement": "IC50", "setting": "[2]", "result": 0.5, "unit": "µM"},
      {"measurement": "IC50", "setting": "[3]", "result": 0.42, "unit": "µM"}
    ]},
    {"compound": "CN[C@@H](C)C(=O)N[C@@H](CCCCCC[C@H](NC(=O)[C@H](C)NC)C(=O)N1CCC[C@H]1CNC(=O)c1cc2ccccc2cc1OC)C(=O)N1CCC[C@H]1CNC(=O)c1cc2ccccc2cc1OC", "note": "[Compound 38]", "values": [
      {"measurement": "IC50", "setting": "[1]", "result": "> 1", "unit": "µM"},
      {"measurement": "IC50", "setting": "[2]", "result": "> 1", "unit": "µM"},
      {"measurement": "IC50", "setting": "[3]", "result": "> 1", "unit": "µM"}
    ]},
    {"compound": "CN[C@@H](C)C(=O)N[C@H](C(=O)N1C[C@@H](OC(=O)c2cccc(C(=O)O[C@H]3C[C@@H](C(=O)N[C@H]4CCCc5ccccc54)N(C(=O)[C@@H](NC(=O)[C@H](C)NC)C(C)(C)C)C3)c2)C[C@H]1C(=O)N[C@H]1CCCc2ccccc21)C(C)(C)C", "note": "[Compound P3-105]", "values": [
      {"measurement": "IC50", "setting": "[4]", "result": "> 1", "unit": "µM"}
    ]},
    {"compound": "CN[C@@H](C)C(=O)N[C@@H](CCCCCC[C@H](NC(=O)[C@H](C)NC)C(=O)N1CCC[C@H]1CNC(=O)c1c(OC)cccc1OC)C(=O)N1CCC[C@H]1CNC(=O)c1c(OC)cccc1OC", "note": "[Compound 35]", "values": [
      {"measurement": "IC50", "setting": "[1]", "result": "> 1", "unit": "µM"},
      {"measurement": "IC50", "setting": "[2]", "result": "> 1", "unit": "µM"},
      {"measurement": "IC50", "setting": "[3]", "result": "> 1", "unit": "µM"}
    ]},
    {"compound": "CN[C@@H](C)C(=O)N[C@@H](CC(=O)NCC=CC=CCNC(=O)C[C@H](NC(=O)[C@H](C)NC)C(=O)N1CCC[C@H]1C(=O)N[C@@H]1CCCc2ccccc21)C(=O)N1CCC[C@H]1C(=O)N[C@@H]1CCCc2ccccc21", "note": "[Compound P2-42]", "values": [
      {"measurement": "IC50", "setting": "Homo sapiens, PANC-1, compound alone, Tables 15-18, read-out: IC50 (uM) in cell viability assay in PANC-1 cells: Cmpnd alone", "result": "> 1", "unit": "µM"},
      {"measurement": "IC50", "setting": "with 100 ng/ml TNFa, Tables 15-18, read-out: IC50 (uM) in cell viability assay in PANC-1 cells: Cmpnd + 100 ng/ml TNFa", "result": 0.091, "unit": "µM"},
      {"measurement": "IC50", "setting": "with 300 ng/ml TRAIL, Tables 15-18, read-out: IC50 (uM) in cell viability assay in PANC-1 cells: Cmpnd + 300 ng/ml TRAIL", "result": 0.148, "unit": "µM"}
    ]},
    {"compound": "CN[C@@H](C)C(=O)N[C@H](C(=O)N1C[C@@H](NC(=O)C2CCCC(C(=O)N[C@H]3C[C@@H](C(=O)N[C@H](C)c4ccccc4)N(C(=O)[C@@H](NC(=O)[C@H](C)NC)C(C)(C)C)C3)C2)C[C@H]1C(=O)N[C@H](C)c1ccccc1)C(C)(C)C", "note": "(stereo partly shown) [Compound P3-102]", "values": [
      {"measurement": "IC50", "setting": "[5]", "result": 0.017, "unit": "µM"},
      {"measurement": "IC50", "setting": "[6]", "result": 0.023, "unit": "µM"},
      {"measurement": "IC50", "setting": "PANC-1 cells, compound alone, read-out: IC50 (uM) in cell viability assay in PANC-1 cells, Cmpnd alone", "result": "> 1", "unit": "µM"}
    ]},
    {"compound": "CN[C@@H](C)C(=O)Nc1nc(CC(=O)NCC[C@H](NC(=O)[C@@H](NC(=O)[C@H](C)NC)C(C)(C)C)C(=O)N[C@@H]2CCCc3ccccc32)cs1", "note": "[Compound 190]", "values": [
      {"measurement": "IC50", "setting": "[1]", "result": "> 1", "unit": "µM"},
      {"measurement": "IC50", "setting": "[2]", "result": "> 1", "unit": "µM"},
      {"measurement": "IC50", "setting": "[3]", "result": "> 1", "unit": "µM"}
    ]},
    {"compound": "CN[C@@H](C)C(=O)NC(C(=O)N[C@@H](CCC(=O)NCCc1cn([C@H]2C[C@@H](C(=O)N[C@@H]3CCCc4ccccc43)N(C(=O)[C@@H](NC(=O)[C@H](C)NC)C(C)(C)C)C2)nn1)C(=O)N[C@H](C)C(C)C)C(C)C", "note": "(stereo partly shown) [Compound 203]", "values": [
      {"measurement": "IC50", "setting": "[1]", "result": "> 1", "unit": "µM"},
      {"measurement": "IC50", "setting": "[2]", "result": 0.683, "unit": "µM"},
      {"measurement": "IC50", "setting": "[3]", "result": 0.616, "unit": "µM"}
    ]},
    {"compound": "CN[C@@H](C)C(=O)N[C@H](C(=O)N1CCC[C@H]1CN1CCC[C@H]1C(c1ccccc1)c1ccccc1)[C@@H](C)OCC#CC#CCO[C@H](C)[C@H](NC(=O)[C@H](C)NC)C(=O)N1CCC[C@H]1CN1CCC[C@H]1C(c1ccccc1)c1ccccc1", "note": "[Compound 81]", "values": [
      {"measurement": "IC50", "setting": "[1]", "result": "> 1", "unit": "µM"},
      {"measurement": "IC50", "setting": "[2]", "result": 0.155, "unit": "µM"},
      {"measurement": "IC50", "setting": "[3]", "result": 0.196, "unit": "µM"}
    ]},
    {"compound": "CN[C@@H](C)C(=O)N[C@H](C(=O)N1C[C@@H](NC(=O)C2CCCC(C(=O)N[C@H]3C[C@@H](C(=O)N[C@H](C)c4ccccc4)N(C(=O)[C@@H](NC(=O)[C@H](C)NC)C(C)(C)C)C3)C2)C[C@H]1C(=O)N[C@H](C)c1ccccc1)C(C)(C)C", "note": "(stereo partly shown) [Compound P3-96]", "values": [
      {"measurement": "IC50", "setting": "[4]", "result": "> 1", "unit": "µM"},
      {"measurement": "IC50", "setting": "[5]", "result": 0.055, "unit": "µM"},
      {"measurement": "IC50", "setting": "[6]", "result": 0.006, "unit": "µM"}
    ]},
    {"compound": "CN[C@@H](C)C(=O)N[C@H](C(=O)N1C[C@@H](NC(=O)c2cccc(C(=O)N[C@H]3C[C@@H](C(=O)NCCc4ccc(S(N)(=O)=O)cc4)N(C(=O)[C@@H](NC(=O)[C@H](C)NC)C(C)(C)C)C3)c2)C[C@H]1C(=O)NCCc1ccc(S(N)(=O)=O)cc1)C(C)(C)C", "note": "[Compound 8]", "values": [
      {"measurement": "IC50", "setting": "[1]", "result": "> 1", "unit": "µM"},
      {"measurement": "IC50", "setting": "[2]", "result": "> 1", "unit": "µM"},
      {"measurement": "IC50", "setting": "[3]", "result": "> 1", "unit": "µM"}
    ]}
  ]
}
